Columns and labels:
[1] = target: T1, NAD-dependent protein deacetylase sirtuin-2 (Homo sapiens, UniProt Q8IXJ6); experiment: Inhibition of recombinant SIRT2 (unknown origin) using FAM-RHKK(Ac)LM as substrate measured after 60 mins by electrophoretic mobility shift assay
T1 sequence (Q8IXJ6 whole entry): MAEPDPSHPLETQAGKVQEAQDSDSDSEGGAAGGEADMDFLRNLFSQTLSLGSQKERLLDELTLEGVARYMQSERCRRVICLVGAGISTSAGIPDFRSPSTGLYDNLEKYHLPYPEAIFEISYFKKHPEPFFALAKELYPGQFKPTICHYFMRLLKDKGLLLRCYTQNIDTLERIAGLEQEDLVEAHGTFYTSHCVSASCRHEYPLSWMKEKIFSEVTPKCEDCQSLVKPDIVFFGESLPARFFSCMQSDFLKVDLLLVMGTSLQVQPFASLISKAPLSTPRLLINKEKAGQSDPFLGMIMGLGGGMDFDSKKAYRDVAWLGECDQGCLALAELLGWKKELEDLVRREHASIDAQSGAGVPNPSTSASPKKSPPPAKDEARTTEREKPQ

[2] = system: MT2; experiment: Cytotoxicity against human MT2 cells assessed as reduction in cell viability measured after 1 day by MTT assay; assay type: cell-based; details: MT2, 24 h
[3] = system: MCF7; experiment: Cytotoxicity against human MCF7 cells assessed as reduction in cell viability measured after 4 days by MTT assay; assay type: functional, cell-based; details: MCF7, 96 h
[4] = system: K562; experiment: Cytotoxicity against human K562 cells assessed as reduction in cell viability measured after 1 day by MTT assay; assay type: functional, cell-based; details: K562, 24 h
[5] = target: T1, NAD-dependent protein deacetylase sirtuin-2; experiment: Inhibition of recombinant SIRT2 (unknown origin) using RHKK(Ac)-MCA as substrate measured after 60 mins by fluorescence assay
[6] = target: T2, NAD-dependent protein deacetylase sirtuin-3, mitochondrial (Homo sapiens) (UniProt Q9NTG7); experiment: Inhibition of recombinant SIRT3 (unknown origin) assessed as residual activity using VSTPVK(Ac)-MCA as substrate measured after 60 mins by fluorescence assay relative to control; set-up: concentration or dose not given beside the values
T2 sequence (whole entry): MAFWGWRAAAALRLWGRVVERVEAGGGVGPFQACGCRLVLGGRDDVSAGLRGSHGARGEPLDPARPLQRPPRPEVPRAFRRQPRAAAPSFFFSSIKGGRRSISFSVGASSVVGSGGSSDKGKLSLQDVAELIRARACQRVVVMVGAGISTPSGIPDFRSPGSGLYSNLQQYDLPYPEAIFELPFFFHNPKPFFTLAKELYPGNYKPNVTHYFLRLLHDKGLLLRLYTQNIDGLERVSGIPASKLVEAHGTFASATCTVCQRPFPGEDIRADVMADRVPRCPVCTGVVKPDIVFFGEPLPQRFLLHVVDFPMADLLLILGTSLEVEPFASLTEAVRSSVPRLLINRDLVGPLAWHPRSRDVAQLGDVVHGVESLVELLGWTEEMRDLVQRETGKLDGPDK

[7] = target: T3, NAD-dependent protein deacetylase sirtuin-1 (Homo sapiens) (UniProt Q96EB6); experiment: Inhibition of recombinant SIRT1 (unknown origin) assessed as residual activity using RHKK(Ac)-MCA as substrate measured after 60 mins by fluorescence assay relative to control; set-up: concentration or dose not given beside the values
T3 sequence (whole entry): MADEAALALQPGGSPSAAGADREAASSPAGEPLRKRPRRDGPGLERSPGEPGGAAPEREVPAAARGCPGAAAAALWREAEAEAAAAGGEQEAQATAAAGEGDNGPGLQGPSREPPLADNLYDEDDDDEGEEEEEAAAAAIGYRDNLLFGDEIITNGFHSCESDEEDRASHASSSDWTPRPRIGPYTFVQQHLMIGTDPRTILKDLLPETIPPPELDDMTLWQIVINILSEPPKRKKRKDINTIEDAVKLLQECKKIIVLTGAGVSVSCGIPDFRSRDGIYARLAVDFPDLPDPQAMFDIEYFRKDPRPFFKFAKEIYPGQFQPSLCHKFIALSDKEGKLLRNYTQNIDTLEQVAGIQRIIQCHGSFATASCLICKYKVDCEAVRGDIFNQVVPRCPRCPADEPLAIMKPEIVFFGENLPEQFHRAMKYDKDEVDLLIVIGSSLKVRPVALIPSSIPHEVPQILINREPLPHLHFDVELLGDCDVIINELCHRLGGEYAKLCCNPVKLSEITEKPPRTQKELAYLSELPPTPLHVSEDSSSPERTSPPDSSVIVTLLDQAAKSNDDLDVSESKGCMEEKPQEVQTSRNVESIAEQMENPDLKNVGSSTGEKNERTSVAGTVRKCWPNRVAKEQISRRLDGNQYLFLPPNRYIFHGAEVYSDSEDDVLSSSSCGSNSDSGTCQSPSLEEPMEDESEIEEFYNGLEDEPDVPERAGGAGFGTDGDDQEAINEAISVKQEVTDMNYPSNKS

Row | IC50 [1] | IC50 [5] | Activity [6] | Activity [7] | Compound | IC50 [2] | IC50 [3] | IC50 [4]
1 | 2.5 µM | – | – | – | COC(=O)[C@H](Cc1cn(C(c2ccccc2)(c2ccccc2)c2ccccc2)cn1)NCc1ccc2ccccc2n1 | – | – | –
2 | – | 8.8 µM | – | – | COC(=O)[C@H](Cc1cn(C(c2ccccc2)(c2ccccc2)c2ccccc2)cn1)NCc1cc(N(C)C)cc(CN[C@@H](Cc2cn(C(c3ccccc3)(c3ccccc3)c3ccccc3)cn2)C(=O)OC)n1 | 8.86 µM | 1.72 µM | 7.91 µM
3 | 3.3 µM | – | – | – | COC(=O)[C@H](Cc1cn(C(c2ccccc2)(c2ccccc2)c2ccccc2)cn1)NCc1cnc2ccccc2c1 | – | – | –
4 | 11.8 µM | – | 81.7% | 105% | COC(=O)[C@H](Cc1cn(C(c2ccccc2)(c2ccccc2)c2ccccc2)cn1)NCc1ccc(N(C)C)cc1 | 6.81 µM | 11.9 µM | 10.4 µM
5 | 7.5 µM | – | – | – | COC(=O)[C@H](Cc1cn(C(c2ccccc2)(c2ccccc2)c2ccccc2)cn1)NCc1cccc(Br)n1 | – | – | –
6 | 1.7 µM | 1.7 µM | – | – | COC(=O)[C@H](Cc1cn(C(c2ccccc2)(c2ccccc2)c2ccccc2)cn1)NCc1cc(N(C)C)ccn1 | 3.53 µM | 0.77 µM | 7.53 µM
7 | – | 5.5 µM | – | – | COC(=O)[C@H](Cc1c[nH]cn1)NCc1cc(N(C)C)cc(CN[C@@H](Cc2cn(C(c3ccccc3)(c3ccccc3)c3ccccc3)cn2)C(=O)OC)n1 | 8.61 µM | 2.29 µM | 6.51 µM
8 | 21.8 µM | – | 67.7% | 96.5% | COC(=O)[C@H](Cc1cn(C(c2ccccc2)(c2ccccc2)c2ccccc2)cn1)NCc1ccccn1 | 1.75 µM | 8.96 µM | 6.36 µM
9 | > 100 µM | – | 90.7% | 116% | COC(=O)[C@H](Cc1cn(C(c2ccccc2)(c2ccccc2)c2ccccc2)cn1)N(Cc1ccccc1)Cc1ccccc1 | – | – | –
10 | 16.4 µM | – | – | – | COC(=O)[C@H](Cc1cn(C(c2ccccc2)(c2ccccc2)c2ccccc2)cn1)NCc1ccccc1 | – | – | –
11 | 20.4 µM | – | – | – | COC(=O)[C@H](Cc1cn(C(c2ccccc2)(c2ccccc2)c2ccccc2)cn1)NC(=O)c1ccccn1 | – | – | –
12 | 10.2 µM | – | – | – | COC(=O)[C@H](Cc1cn(C(c2ccccc2)(c2ccccc2)c2ccccc2)cn1)NCc1ccc(Br)cn1 | – | – | –
13 | 1.3 µM | – | – | – | CCN(CC)c1ccnc(CN[C@@H](Cc2cn(C(c3ccccc3)(c3ccccc3)c3ccccc3)cn2)C(=O)OC)c1 | 4.36 µM | 0.71 µM | 6.27 µM
14 | 5.9 µM | – | 71.9% | 102% | COC(=O)[C@H](Cc1cn(C(c2ccccc2)(c2ccccc2)c2ccccc2)cn1)NCc1ccc(Br)nc1 | 1.37 µM | 9.87 µM | 5.35 µM
15 | 43 µM | – | 76.2% | 95.9% | COC(=O)[C@@H](N)Cc1cn(C(c2ccccc2)(c2ccccc2)c2ccccc2)cn1 | 3.13 µM | 49.1 µM | 7.2 µM
16 | 5.6 µM | – | – | – | COC(=O)[C@H](Cc1cn(C(c2ccccc2)(c2ccccc2)c2ccccc2)cn1)NCc1cccc(N(C)C)c1 | – | – | –
17 | – | – | – | – | Cc1cc(C)nc(SCC(=O)Nc2ncc(Cc3cccc4ccccc34)s2)n1 | > 100 µM | 13.7 µM | > 100 µM
18 | 6.7 µM | – | – | – | COC(=O)[C@H](Cc1cn(C(c2ccccc2)(c2ccccc2)c2ccccc2)cn1)NCc1ccncc1Br | – | – | –
